What all share (assay type): cell-based
The subject of assay [1] is ATCC13883 strain (Klebsiella pneumoniae). The assay is described as follows: Checkerboard antibacterial synergistic activity test with polymyxin E (FIC). Also noted: key: FIC≤0.5 synergy; 0.5–1 additive; 1–2 indifferent; ≥2 antagonism. To be noted: combined with polymyxin E. Put shortly:
(§1)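 Polymyxin E was diluted in MH broth to 16–0.015 μg/ml and the test compound to 256–4 μg/ml (two-fold series, pre-mixing concentrations), combined checkerboard-style in 96-well plates with bacterial suspension and blank controls, and incubated at 37° C. for 16 h. FIC ≤0.5 was scored synergistic, >0.5 to <1 additive, 1–2 indifferent, ≥2 antagonistic.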

Assay [2] concerns ATCC19606 strain (Acinetobacter baumannii). Described as above. Details: key: FIC≤0.5 synergy; 0.5–1 additive; 1–2 indifferent; ≥2 antagonism. The conditions noted are these: combined with polymyxin E. Put shortly:
as §1

In assay [3] the test system is ATCC25922 strain (Escherichia coli). Described as above. Also noted: key: FIC≤0.5 synergy; 0.5–1 additive; 1–2 indifferent; ≥2 antagonism. To be noted: combined with polymyxin E. Put shortly:
as §1

Assay [4] relates to ATCC9027 strain (Pseudomonas aeruginosa). Described as above. The conditions noted are these: combined with polymyxin E. Details: key: FIC≤0.5 synergy; 0.5–1 additive; 1–2 indifferent; ≥2 antagonism. Put shortly: as §1
In assay [5] the test system is ATCC13883 strain (Klebsiella pneumoniae). The assay is described as follows: Broth microdilution, antibacterial activity of the compound used alone. To be noted: for MIC: read-out: Antibacterial activity of the compound of Formula I, ATCC13883. An excerpt: (§2) The broth microdilution method was used to test the antibacterial effects of the compounds of the present invention against various Gram-negative bacterial strains when used alone.
In general terms: Dilution methods test growth across graded concentrations, often in twofold steps.

The subject of assay [6] is ATCC19606 strain (Acinetobacter baumannii). The assay is described as above. The conditions noted are these: for MIC: read-out: Antibacterial activity of the compound of Formula I, ATCC19606.
From the text: as §2

Assay [7] relates to ATCC25922 strain (Escherichia coli). Described as above. The conditions noted are these: for MIC: read-out: Antibacterial activity of the compound of Formula I, ATCC25922.
From the text: as §2

Assay [8] relates to ATCC9027 strain (Pseudomonas aeruginosa). Described as above. To be noted: for MIC: read-out: Antibacterial activity of the compound of Formula I, ATCC9027.
From the text: as §2

In brackets after ≈: the same amount, converted by molar mass.

As for `CC(C)=CCOc1ccc(-c2csc(N=C(N)N)n2)cc1` [Compound I-48], the “Synergistic activity (FIC value) ATCC13883” value in assay [1] was found to be 0.51. For the same molecule, the “Synergistic activity (FIC value) ATCC19606” value in assay [2] is 0.16. Further, in assay [3], the “Synergistic activity (FIC value) ATCC25922” value is on record as 0.51. In addition, the “Synergistic activity (FIC value) ATCC9027” value in assay [4] is given as 0.75. Moreover, in assay [5], the “Antibacterial activity of the compound of Formula I, ATCC13883” value (from here on “Antibacterial activity … ATCC13883”) amounted to 256 µg/mL. The “Antibacterial activity of the compound of Formula I, ATCC19606” value (“Antibacterial activity … ATCC19606” below) in assay [6] was found to be 256 µg/mL. The “Antibacterial activity of the compound of Formula I, ATCC25922” value (shortened to “Antibacterial activity … ATCC25922”) in assay [7] worked out at 256 µg/mL. Besides, the “Antibacterial activity of the compound of Formula I, ATCC9027” value (“Antibacterial activity … ATCC9027” for short) in assay [8] came to 256 µg/mL.

For `NC(N)=Nc1nc(-c2cccc(-c3ccccc3)c2)cs1` [Compound I-74], the “Synergistic activity (FIC value) ATCC13883” value in assay [1] is given as 0.33. The “Synergistic activity (FIC value) ATCC19606” value in assay [2] was 0.15. In addition, the “Synergistic activity (FIC value) ATCC25922” value in assay [3] is reported as 0.39. For the same molecule, the “Synergistic activity (FIC value) ATCC9027” value in assay [4] was 0.62. In addition, the MIC in assay [5], in assay [6], in assay [7] and in assay [8] was 256 µg/mL (≈ 870 µM) each time.

In the case of `NC(N)=Nc1nc(-c2cccc(Oc3ccccc3I)c2)cs1` [Compound I-96], in assay [1], the “Synergistic activity (FIC value) ATCC13883” value worked out at 0.16. Also, in assay [2], the “Synergistic activity (FIC value) ATCC19606” value amounted to 0.03. Besides, in assay [3], the “Synergistic activity (FIC value) ATCC25922” value amounted to 0.18. Moreover, the “Synergistic activity (FIC value) ATCC9027” value in assay [4] amounted to 0.28. The “Antibacterial activity … ATCC13883” value in assay [5] came to 256 µg/mL. Moreover, the “Antibacterial activity … ATCC19606” value in assay [6] was found to be 256 µg/mL. In assay [7], the “Antibacterial activity … ATCC25922” value amounted to 256 µg/mL. In assay [8], the “Antibacterial activity … ATCC9027” value amounted to 256 µg/mL.

For `N#Cc1cccc(-c2csc(N=C(N)N)n2)c1` [Compound I-21], in assay [1], the “Synergistic activity (FIC value) ATCC13883” value is listed as 0.52. In assay [2], the “Synergistic activity (FIC value) ATCC19606” value is 0.52. For the same molecule, the “Synergistic activity (FIC value) ATCC25922” value in assay [3] stood at 0.63. Further, the “Synergistic activity (FIC value) ATCC9027” value in assay [4] was 1.25. The “Antibacterial activity … ATCC13883” value in assay [5] was 128 µg/mL. The “Antibacterial activity … ATCC19606” value in assay [6] was 256 µg/mL. Moreover, in assay [7], the “Antibacterial activity … ATCC25922” value was 128 µg/mL. The “Antibacterial activity … ATCC9027” value in assay [8] came out at 64 µg/mL.

As for `O=C(Nc1cccc(-c2coc(N=C3NCCCN3)n2)c1)Nc1ccc(Cl)cc1Cl` [Compound I-200], the “Synergistic activity (FIC value) ATCC13883” value in assay [1] is recorded as 0.53. For the same molecule, the “Synergistic activity (FIC value) ATCC19606” value in assay [2] is reported as 0.25. For the same molecule, the “Synergistic activity (FIC value) ATCC25922” value in assay [3] was found to be 1.25. Besides, in assay [4], the “Synergistic activity (FIC value) ATCC9027” value was found to be 0.53. Besides, the “Antibacterial activity … ATCC13883” value in assay [5] came to 256 µg/mL. The “Antibacterial activity … ATCC19606” value in assay [6] is 256 µg/mL. In assay [7], the “Antibacterial activity … ATCC25922” value worked out at 256 µg/mL. Further, the “Antibacterial activity … ATCC9027” value in assay [8] worked out at 256 µg/mL.

With `CC(C)c1cc(-c2coc(N=C(N)N)n2)cc(C(C)C)c1O` [Compound I-19], the “Synergistic activity (FIC value) ATCC13883” value in assay [1] is on record as 0.31. In assay [2], the “Synergistic activity (FIC value) ATCC19606” value is 0.12. Besides, the “Synergistic activity (FIC value) ATCC25922” value in assay [3] is given as 0.38. Also, the “Synergistic activity (FIC value) ATCC9027” value in assay [4] is on record as 0.31. Also, in assay [5], the “Antibacterial activity … ATCC13883” value was determined as 256 µg/mL. Further, the “Antibacterial activity … ATCC19606” value in assay [6] is 256 µg/mL. In assay [7], the “Antibacterial activity … ATCC25922” value is 256 µg/mL. In addition, the “Antibacterial activity … ATCC9027” value in assay [8] came out at 256 µg/mL.

Take `CCc1oc(N=C2NCCCN2)nc1-c1c(SC)cc2cc(Cl)cc(Cl)n12` [Compound I-197]: in assay [1], the “Synergistic activity (FIC value) ATCC13883” value worked out at 0.25. In addition, the “Synergistic activity (FIC value) ATCC19606” value in assay [2] worked out at 0.31. In addition, in assay [3], the “Synergistic activity (FIC value) ATCC25922” value stood at 0.27. In assay [4], the “Synergistic activity (FIC value) ATCC9027” value turned out to be 0.52. Also, the “Antibacterial activity … ATCC13883” value in assay [5] turned out to be 256 µg/mL. In addition, the “Antibacterial activity … ATCC19606” value in assay [6] amounted to 256 µg/mL. Also, the “Antibacterial activity … ATCC25922” value in assay [7] came to 256 µg/mL. Besides, in assay [8], the “Antibacterial activity … ATCC9027” value is 256 µg/mL.

As to `CS(=O)(=O)c1ccc(Oc2cccc(-c3csc(N=C(N)N)n3)c2)cc1` [Compound I-106], the “Synergistic activity (FIC value) ATCC13883” value in assay [1] is given as 1.25. Moreover, in assay [2], the “Synergistic activity (FIC value) ATCC19606” value turned out to be 1.25. In assay [3], the “Synergistic activity (FIC value) ATCC25922” value is recorded as 0.53. Moreover, the “Synergistic activity (FIC value) ATCC9027” value in assay [4] is reported as 1.25. Moreover, the MIC in assay [5], in assay [6], in assay [7] and in assay [8] was 256 µg/mL (≈ 659 µM) in each case.

With `CCOC(=O)c1ccc(-c2c[nH]c(N=C(N)N)n2)cc1` [Compound I-25], the “Synergistic activity (FIC value) ATCC13883” value in assay [1] was found to be 0.31. Besides, in assay [2], the “Synergistic activity (FIC value) ATCC19606” value was 0.13. Also, the “Synergistic activity (FIC value) ATCC25922” value in assay [3] stood at 0.38. In addition, in assay [4], the “Synergistic activity (FIC value) ATCC9027” value worked out at 0.53. Also, the “Antibacterial activity … ATCC13883” value in assay [5] worked out at 256 µg/mL. In addition, in assay [6], the “Antibacterial activity … ATCC19606” value was determined as 256 µg/mL. Also, the “Antibacterial activity … ATCC25922” value in assay [7] amounted to 256 µg/mL. Further, the “Antibacterial activity … ATCC9027” value in assay [8] amounted to 256 µg/mL.

As for `Oc1c(I)cc(-c2nc(N=C3NCCCN3)sc2Cl)cc1I` [Compound I-183], the “Synergistic activity (FIC value) ATCC13883” value in assay [1] came to 1.25. Moreover, the “Synergistic activity (FIC value) ATCC19606” value in assay [2] came out at 0.25. Also, the “Synergistic activity (FIC value) ATCC25922” value in assay [3] worked out at 1.25. Also, in assay [4], the “Synergistic activity (FIC value) ATCC9027” value came to 0.52. Further, the “Antibacterial activity … ATCC13883” value in assay [5] was 256 µg/mL. Besides, the “Antibacterial activity … ATCC19606” value in assay [6] turned out to be 256 µg/mL. In addition, in assay [7], the “Antibacterial activity … ATCC25922” value was determined as 256 µg/mL. In assay [8], the “Antibacterial activity … ATCC9027” value was found to be 256 µg/mL.

Turning to `COc1ccc(Oc2cccc(-c3c[nH]c(N=C(N)N)n3)c2)c(C)c1` [Compound I-93], in assay [1], the “Synergistic activity (FIC value) ATCC13883” value stood at 0.16. The “Synergistic activity (FIC value) ATCC19606” value in assay [2] amounted to 0.03. The “Synergistic activity (FIC value) ATCC25922” value in assay [3] is recorded as 0.18. Also, the “Synergistic activity (FIC value) ATCC9027” value in assay [4] was determined as 0.28. Besides, the “Antibacterial activity … ATCC13883” value in assay [5] is 256 µg/mL. Moreover, the “Antibacterial activity … ATCC19606” value in assay [6] was found to be 256 µg/mL. Moreover, in assay [7], the “Antibacterial activity … ATCC25922” value was found to be 256 µg/mL. The “Antibacterial activity … ATCC9027” value in assay [8] is 256 µg/mL.

`Cc1sc(N=C2NCCCN2)nc1-c1ccccc1Oc1ccccc1Cl` [Compound I-145]: the “Synergistic activity (FIC value) ATCC13883” value in assay [1] was found to be 0.13. For the same molecule, in assay [2], the “Synergistic activity (FIC value) ATCC19606” value worked out at 0.04. Moreover, in assay [3], the “Synergistic activity (FIC value) ATCC25922” value is reported as 0.2. Besides, the “Synergistic activity (FIC value) ATCC9027” value in assay [4] is 0.28. The “Antibacterial activity … ATCC13883” value in assay [5] was determined as 256 µg/mL. The “Antibacterial activity … ATCC19606” value in assay [6] was 256 µg/mL. Also, the “Antibacterial activity … ATCC25922” value in assay [7] was 256 µg/mL. Besides, in assay [8], the “Antibacterial activity … ATCC9027” value was found to be 256 µg/mL.

`NC(N)=Nc1nc(-c2cc3ccccc3o2)cs1` [Compound I-112]: the “Synergistic activity (FIC value) ATCC13883” value in assay [1] is 1.25. Moreover, the “Synergistic activity (FIC value) ATCC19606” value in assay [2] turned out to be 0.51. For the same molecule, the “Synergistic activity (FIC value) ATCC25922” value in assay [3] came out at 1.25. In assay [4], the “Synergistic activity (FIC value) ATCC9027” value amounted to 0.52. Further, the MIC in assay [5], in assay [6], in assay [7] and in assay [8] was 256 µg/mL (≈ 991 µM) in each case.

Source of the values: patent US20260250257A1, “ANTIBACTERIAL AND SYNERGISTIC ACTIVE COMPOUND AND USE THEREOF” (EAST CHINA UNIVERSITY OF SCIENCE AND TECHNOLOGY, priority 2023, published 2026).
